Measured values: ChEMBL document CHEMBL5036301, “Heteroaryl ether analogues of an antileishmanial 7-substituted 2-nitroimidazooxazine lead afford attenuated hERG risk: In vitro and in vivo appraisal” (Eur J Med Chem, 2021)
≈ marks a conversion by molar mass, not a printed value.

Key:
[1] = system: Mycobacterium tuberculosis; assay: Antitubercular activity against Mycobacterium tuberculosis H37Rv assessed as reduction in microbial growth under aerobic condition by luminescence analysis; format: functional
Leishmania donovani [2] = assay: Antileishmanial activity against Leishmania donovani amastigotes infected in mouse J774A.1 cells incubated for 72 hrs by luciferase assay; format: functional, organism-based; details: J774.A1, 72 h
[3] = system: Mycobacterium tuberculosis; assay: Antitubercular activity against Mycobacterium tuberculosis H37Rv assessed as reduction in microbial growth under anaerobic condition by luminescence analysis; format: functional
Trypanosoma cruzi = assay: Antitrypanosomal activity against Trypanosoma cruzi Tulahuen CL2 infected in human MRC-5 cells assessed as parasite growth; format: functional, organism-based; details: Tulahuen CL2, MRC5
[4] = Selectivity index, ratio IC50 for cytotoxicity against human MRC5 cells to IC50 for antileishmanial activity against Leishmania infantum MHOM/MA(BE)/67 amastigotes infected in macrophages
MRC5 = assay: Cytotoxicity against human MRC5 cells assessed as cell viability after 72 hrs by fluorimetric analysis; format: ADME, cell-based; details: MRC5, 72 h
Leishmania infantum = assay: Antileishmanial activity against Leishmania infantum MHOM/MA(BE)/67 amastigotes infected in macrophages assessed as reduction in parasite burden by giemsa staining based microscopic analysis; format: functional, organism-based
hERG (KCNH2) = hERG (KCNH2) (Homo sapiens, UniProt Q12809); assay: Inhibition of human ERG expressed in HEK293 cells at 10 uM relative to control; format: cell-based; details: HEK293 cells expressing human ERG
[5] = Kinetic solubility of compound in water at pH7 by HPLC analysis; details: pH 7
[6] = Initial plasma concentration in mouse at 1 mg/kg, iv measured upto 24 hrs LC-MS/MS analysis
in vivo [7] = details: mouse, po, 25 mg/kg
[8] = Volume of distribution at steady state in mouse at 1 mg/kg, iv measured upto 24 hrs LC-MS/MS analysis; details: in vivo
[9] = Clearance in mouse at 1 mg/kg, iv measured upto 24 hrs LC-MS/MS analysis; details: in vivo
in vivo [10] = details: mouse, po, 25 mg/kg; remark: listed apart in the source
[11] = AUClast in mouse at 25 mg/kg, po measured upto 24 hrs LC-MS/MS analysis; details: in vivo
[12] = AUClast in mouse at 1 mg/kg, iv measured upto 24 hrs LC-MS/MS analysis; details: in vivo
Leishmania donovani [13] = assay: Antileishmanial activity against Leishmania donovani amastigotes infected in BALB/C mouse assessed as reduction in parasite burden in liver tissue at 50 mg/kg, po administered once per day for 5 days relative to control; format: functional; details: 120 h, time 5 day
in vivo [14] = details: mouse, po, 25 mg/kg; remark: listed apart in the source
[15] = Half life in mouse at 1 mg/kg, iv measured upto 24 hrs LC-MS/MS analysis; details: in vivo

Sequence of hERG (KCNH2) (Q12809 whole entry): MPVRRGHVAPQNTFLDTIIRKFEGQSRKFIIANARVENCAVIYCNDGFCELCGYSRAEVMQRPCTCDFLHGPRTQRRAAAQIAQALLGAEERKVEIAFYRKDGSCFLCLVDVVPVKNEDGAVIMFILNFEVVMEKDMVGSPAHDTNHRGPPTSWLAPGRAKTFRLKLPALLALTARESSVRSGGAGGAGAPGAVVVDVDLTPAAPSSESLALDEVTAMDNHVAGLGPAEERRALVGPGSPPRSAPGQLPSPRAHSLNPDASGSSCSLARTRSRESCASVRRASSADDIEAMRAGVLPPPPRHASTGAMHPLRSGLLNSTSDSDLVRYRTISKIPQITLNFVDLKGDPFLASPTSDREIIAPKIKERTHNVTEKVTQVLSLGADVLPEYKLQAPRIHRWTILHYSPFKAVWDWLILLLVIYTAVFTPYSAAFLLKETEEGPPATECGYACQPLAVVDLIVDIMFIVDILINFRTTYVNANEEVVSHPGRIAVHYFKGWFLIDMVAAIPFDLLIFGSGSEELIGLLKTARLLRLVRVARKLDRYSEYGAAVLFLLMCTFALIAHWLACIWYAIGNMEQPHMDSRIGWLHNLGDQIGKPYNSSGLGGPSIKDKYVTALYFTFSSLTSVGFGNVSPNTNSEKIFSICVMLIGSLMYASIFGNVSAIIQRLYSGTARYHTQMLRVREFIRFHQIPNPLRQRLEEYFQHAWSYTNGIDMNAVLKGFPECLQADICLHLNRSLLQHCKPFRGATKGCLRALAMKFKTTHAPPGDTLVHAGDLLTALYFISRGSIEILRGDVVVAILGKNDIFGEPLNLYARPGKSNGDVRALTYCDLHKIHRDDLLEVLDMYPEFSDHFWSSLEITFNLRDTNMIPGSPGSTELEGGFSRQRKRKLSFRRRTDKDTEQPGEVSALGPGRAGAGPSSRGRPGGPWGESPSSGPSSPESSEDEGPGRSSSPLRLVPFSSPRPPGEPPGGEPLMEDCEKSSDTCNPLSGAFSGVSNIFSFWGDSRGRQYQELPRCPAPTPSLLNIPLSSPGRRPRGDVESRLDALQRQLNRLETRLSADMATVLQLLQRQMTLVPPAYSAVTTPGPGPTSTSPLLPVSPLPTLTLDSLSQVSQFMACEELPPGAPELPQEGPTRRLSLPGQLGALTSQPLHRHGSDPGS

SMILES | MIC [1] [µM] | IC50 (Leishmania donovani [2]) [µM] | MIC [3] [µM] | IC50 (Trypanosoma cruzi) [µM] | selectivity ratio [4] | IC50 (MRC5) [µM] | IC50 (Leishmania infantum) [µM] | inhibition at 10 µM (hERG (KCNH2)) [%] | solubility kinetic [5] [µg/mL] | C0 at 24 h [6] [ng/mL] | Cmax at 24 h (in vivo [7]) [ng/mL] | Vd at 24 h [8] [L/kg] | clearance at 24 h [9] [mL/min/kg] | Tmax at 24 h (in vivo [10]) [h] | AUC(0-t) at 24 h [11] [ng·h/mL] | AUC(0-t) at 24 h [12] [ng·h/mL] | inhibition in vivo at 50 mg/kg (Leishmania donovani [13]) [%] | bioavailability at 24 h (in vivo [14]) [%] | half-life at 24 h [15] [h]
O=[N+]([O-])c1cn2c(n1)OC(COc1ccc(OC(F)(F)F)cc1)CC2 (centres undefined) | 5.2 | 0.04 | 4.7 | 0.061 | – | – | – | – | – | – | – | – | – | – | – | – | – | – | –
CC1(COc2ccc(Cl)cc2)CCn2cc([N+](=O)[O-])nc2O1 (centres undefined) | 0.86 | 0.05 | 7 | 0.18 | > 492 | > 64 | 0.13 | – | – | – | – | – | – | – | – | – | – | – | –
CC1(COc2ccc(F)cc2)CCn2cc([N+](=O)[O-])nc2O1 (centres undefined) | 1.3 | 0.29 | 5 | 0.45 | > 142 | > 64 | 0.45 | – | – | – | – | – | – | – | – | – | – | – | –
O=[N+]([O-])c1cn2c(n1)OC(COc1ccc(Cl)cn1)CC2 (centres undefined) | – | 0.1 | – | 0.94 | – | > 64 | > 64 | 17 | 18 (≈ 57.9 µM) | – | – | – | – | – | – | – | – | – | –
CC1(COc2ncc(F)cn2)CCn2cc([N+](=O)[O-])nc2O1 (centres undefined) | – | 0.67 | – | 14 | – | > 64 | > 64 | – | – | – | – | – | – | – | – | – | – | – | –
O=[N+]([O-])c1cn2c(n1)OC(COc1cccc(C(F)(F)F)n1)CC2 (centres undefined) | – | – | – | 0.53 | – | > 64 | > 64 | – | – | – | – | – | – | – | – | – | – | – | –
CC1(COc2ccc(Cl)cn2)CCn2cc([N+](=O)[O-])nc2O1 (centres undefined) | 2 | 0.15 | 8.7 | 0.63 | – | > 64 | 0.38 | – | 23 (≈ 70.8 µM) | 2600 | 11000 | 0.5 | 8.3 | 1 | 57800 | 2010 | 14 | 100 | 0.65
CC1(COc2ccc(C(F)(F)F)nc2)CCn2cc([N+](=O)[O-])nc2O1 (centres undefined) | 66 | 0.09 | 33 | 0.78 | – | > 64 | 1.9 | 17 | 7.3 (≈ 20.4 µM) | 1600 | 11000 | 0.46 | 4.1 | 1 | 41800 | 4000 | 42 | 84 | 1.5
C[C@]1(COc2ccc(C(F)(F)F)nc2)CCn2cc([N+](=O)[O-])nc2O1 | – | 0.44 | – | 0.9 | – | > 64 | 1.3 | – | 12 (≈ 33.5 µM) | 1100 | 7300 | 0.91 | 6.6 | 2 | 37200 | 2520 | 72 | 59 | 1.3
O=[N+]([O-])c1cn2c(n1)OC(COc1ncc(C(F)(F)F)cn1)CC2 (centres undefined) | – | – | – | 3.3 | – | > 64 | > 64 | – | – | – | – | – | – | – | – | – | – | – | –
CC1(COc2ccc(F)nc2)CCn2cc([N+](=O)[O-])nc2O1 (centres undefined) | – | 0.6 | – | 4.3 | > 9 | > 64 | 7.1 | – | – | – | – | – | – | – | – | – | – | – | –
C[C@@]1(COc2ccc(C(F)(F)F)nc2)CCn2cc([N+](=O)[O-])nc2O1 | > 128 | 0.74 | > 128 | 1.8 | – | > 64 | 2.3 | – | 15 (≈ 41.9 µM) | 1900 | 8000 | 0.75 | 6 | 2 | 37200 | 2760 | 46 | 54 | 1.2
CC1(COc2cc(C(F)(F)F)ccn2)CCn2cc([N+](=O)[O-])nc2O1 (centres undefined) | – | – | – | 0.86 | > 142 | > 64 | 0.45 | – | – | – | – | – | – | – | – | – | – | – | –
CC1(COc2ccc(C(F)(F)F)cc2)CCn2cc([N+](=O)[O-])nc2O1 (centres undefined) | 0.8 | 0.16 | 4.1 | 0.15 | > 400 | > 64 | 0.16 | – | – | – | – | – | – | – | – | – | – | – | –
CC1(COc2ccc(Oc3ccccc3)cc2)CCn2cc([N+](=O)[O-])nc2O1 (centres undefined) | 0.7 | 0.17 | 2.7 | 0.25 | > 376 | > 64 | 0.17 | – | – | – | – | – | – | – | – | – | – | – | –
O=[N+]([O-])c1cn2c(n1)OC(COc1cc(C(F)(F)F)ccn1)CC2 (centres undefined) | – | – | – | 1 | – | > 64 | > 64 | – | – | – | – | – | – | – | – | – | – | – | –
CC1(COc2ccc(F)cn2)CCn2cc([N+](=O)[O-])nc2O1 (centres undefined) | 2.3 | 0.26 | 19 | 3.3 | > 40 | > 64 | 1.6 | – | – | – | – | – | – | – | – | – | – | – | –
CC1(COc2cccc(C(F)(F)F)n2)CCn2cc([N+](=O)[O-])nc2O1 (centres undefined) | – | – | – | 0.44 | > 110 | > 64 | 0.58 | – | – | – | – | – | – | – | – | – | – | – | –
O=[N+]([O-])c1cn2c(n1)OC(COc1ccc(C(F)(F)F)nc1)CC2 (centres undefined) | – | 0.11 | – | 1.1 | – | > 64 | > 64 | 4 | 29 (≈ 84.2 µM) | 2300 | 5800 | 0.47 | 5.4 | 0.25 | 15100 | 3100 | – | 39 | 1.1
CC1(COc2ccc(Cl)nc2)CCn2cc([N+](=O)[O-])nc2O1 (centres undefined) | – | 0.86 | – | 0.93 | > 23 | > 64 | 2.8 | – | – | – | – | – | – | – | – | – | – | – | –
CC1(COc2ncc(Cl)cn2)CCn2cc([N+](=O)[O-])nc2O1 (centres undefined) | – | 0.32 | – | 3.7 | – | > 64 | > 64 | – | – | – | – | – | – | – | – | – | – | – | –
CC1(COc2ccccc2)CCn2cc([N+](=O)[O-])nc2O1 (centres undefined) | 1.3 | 0.3 | 8.1 | 0.59 | > 123 | > 64 | 0.52 | – | – | – | – | – | – | – | – | – | – | – | –
